Test results: article PMC5515969, “Effects of 31 FDA approved small-molecule kinase inhibitors on isolated rat liver mitochondria” (Archives of Toxicology, 2016)

Legend:
[1] = human therapeutic Cmax at FDA recommended dosages; ref product labeling and drug approval packages at the official FDA website; cited from earlier work
[2] = system: isolated rat liver mitochondria; assay: Mitochondrial inner membrane potential (MMP), Rhodamine 123; format: biochemical; details: for effect on MMP: up to 100-fold Cmax or highest testable concentration
Text: Fig. 3 KI effects on mitochondrial inner membrane potential (MMP). […] In a, c, data are means and standard derivations from three separate experiments. *p < 0.05 as compared to DMSO-treated samples at the end of experiments. In b, data are means of two independent experiments

[3] = ref FDA product labeling, cited from earlier work
[4] = system: isolated rat liver mitochondria; assay: Mitochondrial ROS production (CM-H2DCFDA); details: highest tested concentrations
[5] = system: isolated rat liver mitochondria; assay: Mitochondrial swelling (absorbance at 535 nm); format: biochemical; details: for effect on mitochondrial swelling: up to 100-fold Cmax or highest testable concentration, 25 µM calcium chloride
RCC I–V = assay: Activities of RCC I–V, overall statements; format: biochemical, rat; details: submitochondrial particles; for RCCs inhibited: up to 100-fold Cmax or highest testable concentration
Experimental: KIs were incubated with submitochondrial particles (1 mg/ml) for 15 min and then RCC I–V activities measured. […] The activities of DMSO-treated samples (controls) were set as 1. […] The difference between the activity from rotenone-containing buffer and rotenone-absent buffer was considered as RCC I activity. […] For measuring RCC I/V and II activity, the changes in absorbance at 340 and 600 nm, respectively, were determined every 1 min for 6 min. For measuring RCC III and RCC IV, the changes in absorbance at 550 nm were measured every 10 s for 2 min.

RCC I = RCC I activity in submitochondrial particles; format: biochemical, rat; details: 15 min, DMSO-treated = 100
Method in brief: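 Kinase inhibitors were preincubated 15 min with submitochondrial particles (1 mg/ml) before complex activities were measured. RCC I was the rotenone-sensitive portion (activity without minus with rotenone). RCC I/V was read at 340 nm and RCC II at 600 nm every 1 min for 6 min. RCC III and IV were read at 550 nm every 10 s for 2 min. Activities are normalized to DMSO controls set as 1.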

RCC IV = RCC IV activity in submitochondrial particles; format: biochemical, rat; details: 15 min, DMSO-treated = 100
Method in brief: (§1)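 Absorbance kinetics: A340 (RCC I, V) and A600 (RCC II) read each minute over 6 min, A550 (RCC III, IV) every 10 s over 2 min; RCC I taken as […]. Particles (1 mg/ml) pretreated 15 min with compound; DMSO-treated activity = 1.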

RCC III = RCC III activity in submitochondrial particles; format: biochemical, rat; details: 15 min, DMSO-treated = 100
Method in brief: as §1

[6] = system: isolated rat liver mitochondria; assay: Mitochondrial oxygen consumption (glutamate/malate or succinate driven, state 4 and state 3); format: biochemical; details: for Glutamate/malate driven respiration State 3 / Glutamate/malate driven respiration State 4 / Succinate-driven respiration State 3 / Succinate-driven respiration State 4: oxygen consumption, DMSO-treated = 1; for effect on state 4 respiration: highest tested concentrations; for lowest concentration significantly affecting mitochondrial oxygen consumption: tested at 1 to 100-fold Cmax
Method in brief: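 Oxygen uptake on glutamate/malate or on succinate defined state 4; ADP added 3 min later gave state 3. Mitochondria isolated from rat liver by differential centrifugation, adjusted to 1 mg/ml and pretreated 5 min with inhibitor (0.1% DMSO final). Values relative to DMSO control, set to 1.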

[7] = system: isolated rat liver mitochondria; assay: Mitochondrial toxicity, any endpoint, intact mitochondria and submitochondrial particles; format: biochemical; details: any endpoint
Experimental: Rats were anesthetized by an intraperitoneal injection of Nembutal and the liver perfused with PBS to remove the blood. The liver was then cut into small pieces and homogenized using a Dounce type homogenizer in the ice-cold isolation buffer (IB) containing 200 mM sucrose, 10 mM Tris-MOPS, 1 mM EGTA (pH 7.4). The sample was then centrifuged at 600g for 10 min. The supernatant was further centrifuged at 7500g for 10 min, and the pellets was washed once with the IB and centrifuged again at 7500g for 10 min to collect mitochondria. […] Before drug treatment, the protein concentration was adjusted to 1 mg/ml using appropriate buffer. […] Briefly, mitochondrial and cytosolic fractions from four different preparations using four rats were diluted using the Laemmli protein loading buffer and subject to SDS-PAGE with 4–20% gradient gels. The proteins were blotted to PVDF membranes and detected using antibodies against GAPDH, ATP5A, UQCRC2, SDHB, and NDUFB8.
The aliquoted stock solutions were kept for less than one month and each tube was used only once. The KIs were added to the mitochondria at 1:1000 dilutions. […] The Cmax data were from clinical trials which used FDA recommend dosages, route of administration, and duration. […] The final concentration of DMSO for drug treatment was always 0.1%, and control treatments were 0.1% DMSO.

RCC V = RCC V activity in submitochondrial particles; format: biochemical, rat; details: 15 min, DMSO-treated = 100
Method in brief: as §1

## CNC(=O)c1cc(Oc2ccc(NC(=O)Nc3ccc(Cl)c(C(F)(F)F)c3)cc2)ccn1 [Sorafenib]
[1]
  Cmax: 4.3 µM
[2]
  lowest concentration decreasing MMP: onefold
  effect on MMP: decrease in MMP
[3]; W&P warnings and precautions, BBW black box warnings
  labeling for DILI: W&P: fatal DILI
[3]
  DILI potential (based on labeling): 1
[4]
  effect on ROS production: neither of them affected ROS production
[5]
  lowest concentration causing mitochondrial swelling: 2.5 fold Cmax
  effect on mitochondrial swelling: significant mitochondrial swelling
RCC I–V
  lowest concentration inhibiting RCCs: fivefold
  RCCs inhibited: RCC V
RCC I; 5-fold Cmax
  RCC activity I: 87.23 ± 10.61 % of control
RCC I; 10-fold Cmax
  RCC activity I: 85.45 ± 11.93 % of control
RCC IV; 5-fold Cmax
  RCC activity IV: 101.55 ± 3.61 % of control
RCC IV; 10-fold Cmax
  RCC activity IV: 107.65 ± 10.77 % of control
RCC III; 5-fold Cmax
  RCC activity III: 97.60 ± 5.50 % of control
RCC III; 10-fold Cmax
  RCC activity III: 94.31 ± 7.47 % of control
[6]; 1-fold Cmax
  Glutamate/malate driven respiration State 3: 1.15 ± 0.09
  Glutamate/malate driven respiration State 4: 2.55 ± 0.27
  Succinate-driven respiration State 3: 1.00 ± 0.10
  Succinate-driven respiration State 4: 1.50 ± 0.21
[6]; 2.5-fold Cmax
  Glutamate/malate driven respiration State 3: 1.57 ± 0.06
  Glutamate/malate driven respiration State 4: 4.92 ± 0.09
  Succinate-driven respiration State 3: 0.62 ± 0.05
  Succinate-driven respiration State 4: 1.43 ± 0.06
[6]; 5-fold Cmax
  Glutamate/malate driven respiration State 4: 3.69 ± 0.12
  Succinate-driven respiration State 3: 0.40 ± 0.01
  Succinate-driven respiration State 4: 1.03 ± 0.08
[6]; 10-fold Cmax
  Glutamate/malate driven respiration State 3: 0.93 ± 0.34
  Glutamate/malate driven respiration State 4: 5.00 ± 1.92
  Succinate-driven respiration State 3: 1.03 ± 0.19
  Succinate-driven respiration State 4: 3.34 ± 0.45
[6]
  effect on state 4 respiration: significant increases
  lowest concentration significantly affecting mitochondrial oxygen consumption: equal to Cmax
[7]
  lowest concentration causing significant mitochondrial toxicity: equal to the Cmax
RCC V; 10-fold Cmax
  RCC activity V: 65.55 ± 6.34 % of control

## COc1cc2nccc(Oc3ccc(NC(=O)C4(C(=O)Nc5ccc(F)cc5)CC4)cc3)c2cc1OC [Cabozantinib]
[1]
  Cmax: 2.58 µM
[2]
  lowest concentration decreasing MMP: tenfold
  effect on MMP: decrease in MMP
[3]
  DILI potential (based on labeling): 0
[5]
  lowest concentration causing mitochondrial swelling: 20 fold Cmax
  effect on mitochondrial swelling: significant mitochondrial swelling
RCC I–V
  RCCs inhibited: both RCC I and RCC II
RCC I; 30-fold Cmax
  RCC activity I: 80.97 ± 2.99 % of control
RCC IV; 30-fold Cmax
  RCC activity IV: 113.10 ± 9.48 % of control
RCC III; 30-fold Cmax
  RCC activity III: 90.73 ± 14.60 % of control
[6]; 10-fold Cmax
  Glutamate/malate driven respiration State 4: 1.46 ± 0.08
  Succinate-driven respiration State 3: 1.03 ± 0.01
  Succinate-driven respiration State 4: 1.23 ± 0.11
[6]; 20-fold Cmax
  Glutamate/malate driven respiration State 3: 0.92 ± 0.05
  Glutamate/malate driven respiration State 4: 1.30 ± 0.15
  Succinate-driven respiration State 3: 0.94 ± 0.06
  Succinate-driven respiration State 4: 1.24 ± 0.05
[6]; 30-fold Cmax
  Glutamate/malate driven respiration State 4: 1.55 ± 0.06
  Succinate-driven respiration State 3: 0.95 ± 0.05
  Succinate-driven respiration State 4: 1.35 ± 0.18
[6]
  effect on state 4 respiration: significant increases
  lowest concentration significantly affecting mitochondrial oxygen consumption: tenfold
[7]
  lowest concentration causing significant mitochondrial toxicity: 10 fold Cmax
RCC V; 30-fold Cmax
  RCC activity V: 91.99 ± 8.51 % of control
